Assay results as given in paper PMC2910072 (Nucleic Acids Research, 2010).
pIC50: −log10 of the molar value.

Target: E. coli RNA polymerase β subunit (wild-type) (Escherichia coli, UniProt P0A8V2)
Test: coupled cell-free synthesis of RNAP holoenzyme with firefly luciferase reporter
Assay type: biochemical

Chain of E. coli RNA polymerase β subunit (wild-type) (P0A8V2 whole entry): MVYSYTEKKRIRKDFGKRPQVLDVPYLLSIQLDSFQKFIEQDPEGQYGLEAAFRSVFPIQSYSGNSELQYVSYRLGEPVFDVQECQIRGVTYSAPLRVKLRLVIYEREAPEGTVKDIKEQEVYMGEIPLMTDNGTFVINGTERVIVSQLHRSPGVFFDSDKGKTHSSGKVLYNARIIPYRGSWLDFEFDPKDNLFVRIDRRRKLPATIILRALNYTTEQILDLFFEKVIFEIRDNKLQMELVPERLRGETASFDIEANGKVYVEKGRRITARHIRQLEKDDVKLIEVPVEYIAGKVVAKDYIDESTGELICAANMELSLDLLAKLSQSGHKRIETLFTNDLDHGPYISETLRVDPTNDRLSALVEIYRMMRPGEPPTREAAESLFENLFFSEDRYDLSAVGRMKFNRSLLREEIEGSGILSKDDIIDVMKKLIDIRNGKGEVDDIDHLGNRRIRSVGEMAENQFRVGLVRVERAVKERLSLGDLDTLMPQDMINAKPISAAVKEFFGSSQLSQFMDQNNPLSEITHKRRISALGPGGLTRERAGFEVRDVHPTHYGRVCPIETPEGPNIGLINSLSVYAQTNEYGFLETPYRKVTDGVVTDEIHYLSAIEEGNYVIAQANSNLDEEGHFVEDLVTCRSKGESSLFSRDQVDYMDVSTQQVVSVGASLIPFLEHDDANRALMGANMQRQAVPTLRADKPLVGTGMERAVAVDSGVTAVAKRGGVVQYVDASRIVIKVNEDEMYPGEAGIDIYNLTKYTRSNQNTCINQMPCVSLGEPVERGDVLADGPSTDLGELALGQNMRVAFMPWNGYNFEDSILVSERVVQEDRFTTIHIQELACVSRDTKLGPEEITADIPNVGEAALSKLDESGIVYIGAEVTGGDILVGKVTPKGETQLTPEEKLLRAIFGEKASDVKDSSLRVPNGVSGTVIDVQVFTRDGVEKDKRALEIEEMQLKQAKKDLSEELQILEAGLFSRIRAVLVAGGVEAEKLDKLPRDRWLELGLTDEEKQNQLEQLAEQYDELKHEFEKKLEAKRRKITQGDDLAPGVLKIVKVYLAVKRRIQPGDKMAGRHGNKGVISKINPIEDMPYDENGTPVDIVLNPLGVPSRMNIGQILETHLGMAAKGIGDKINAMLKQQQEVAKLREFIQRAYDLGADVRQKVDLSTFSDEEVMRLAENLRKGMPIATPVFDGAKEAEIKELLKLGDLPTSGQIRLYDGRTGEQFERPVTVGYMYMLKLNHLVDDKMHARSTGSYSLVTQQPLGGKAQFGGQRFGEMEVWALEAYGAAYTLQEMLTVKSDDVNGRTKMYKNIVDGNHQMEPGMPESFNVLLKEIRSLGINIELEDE
Chain of E. coli RNA polymerase β subunit (wild-type) (P0A7Z4 whole entry partner): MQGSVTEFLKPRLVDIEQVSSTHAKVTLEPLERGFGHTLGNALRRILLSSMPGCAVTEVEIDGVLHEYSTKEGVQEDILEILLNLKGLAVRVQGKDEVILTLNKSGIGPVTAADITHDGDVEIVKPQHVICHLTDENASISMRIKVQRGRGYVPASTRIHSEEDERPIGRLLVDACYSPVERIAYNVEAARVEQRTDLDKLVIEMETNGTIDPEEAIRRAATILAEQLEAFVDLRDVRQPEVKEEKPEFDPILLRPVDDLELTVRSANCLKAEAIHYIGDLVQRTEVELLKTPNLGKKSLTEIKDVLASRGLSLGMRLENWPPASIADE
Chain of E. coli RNA polymerase β subunit (wild-type) (P0A8T7 whole entry partner): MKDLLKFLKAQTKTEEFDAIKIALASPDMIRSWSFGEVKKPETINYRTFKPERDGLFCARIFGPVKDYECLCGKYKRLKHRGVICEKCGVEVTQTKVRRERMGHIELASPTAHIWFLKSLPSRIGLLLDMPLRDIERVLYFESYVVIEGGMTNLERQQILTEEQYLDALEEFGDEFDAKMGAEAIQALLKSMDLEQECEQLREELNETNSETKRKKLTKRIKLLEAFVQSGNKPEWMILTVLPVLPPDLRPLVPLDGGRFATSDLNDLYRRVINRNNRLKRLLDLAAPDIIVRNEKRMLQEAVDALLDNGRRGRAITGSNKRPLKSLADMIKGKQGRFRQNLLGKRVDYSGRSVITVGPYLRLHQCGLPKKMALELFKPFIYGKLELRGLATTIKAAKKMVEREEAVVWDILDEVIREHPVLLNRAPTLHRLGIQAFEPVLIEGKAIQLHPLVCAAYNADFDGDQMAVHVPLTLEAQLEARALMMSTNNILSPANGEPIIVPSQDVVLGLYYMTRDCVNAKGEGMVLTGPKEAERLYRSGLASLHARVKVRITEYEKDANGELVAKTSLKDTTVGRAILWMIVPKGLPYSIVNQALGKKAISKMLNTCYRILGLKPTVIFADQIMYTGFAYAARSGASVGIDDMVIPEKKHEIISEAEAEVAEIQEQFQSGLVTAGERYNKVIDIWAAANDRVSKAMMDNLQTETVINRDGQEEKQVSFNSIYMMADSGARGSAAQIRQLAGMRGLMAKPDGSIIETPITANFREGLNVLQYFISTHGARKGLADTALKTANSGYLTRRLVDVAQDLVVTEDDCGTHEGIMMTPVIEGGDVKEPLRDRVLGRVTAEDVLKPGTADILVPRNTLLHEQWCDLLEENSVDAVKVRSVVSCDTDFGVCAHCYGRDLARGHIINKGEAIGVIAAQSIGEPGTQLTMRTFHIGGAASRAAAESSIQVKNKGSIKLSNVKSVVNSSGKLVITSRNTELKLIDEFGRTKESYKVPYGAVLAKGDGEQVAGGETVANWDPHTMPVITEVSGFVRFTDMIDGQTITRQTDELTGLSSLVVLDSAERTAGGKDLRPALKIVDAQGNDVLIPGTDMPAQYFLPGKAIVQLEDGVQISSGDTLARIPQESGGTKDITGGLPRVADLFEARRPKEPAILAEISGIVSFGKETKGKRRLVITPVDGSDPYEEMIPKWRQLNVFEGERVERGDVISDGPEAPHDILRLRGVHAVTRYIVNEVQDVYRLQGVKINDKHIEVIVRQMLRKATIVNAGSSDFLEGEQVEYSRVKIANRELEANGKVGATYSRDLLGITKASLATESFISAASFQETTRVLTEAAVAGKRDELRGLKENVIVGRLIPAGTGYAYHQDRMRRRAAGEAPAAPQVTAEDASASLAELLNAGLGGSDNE
Chain of E. coli RNA polymerase β subunit (wild-type) (P0A800 2-91 partner): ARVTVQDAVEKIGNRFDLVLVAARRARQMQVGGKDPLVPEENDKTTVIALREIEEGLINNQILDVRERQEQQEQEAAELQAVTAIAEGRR
Chain of E. coli RNA polymerase β subunit (wild-type) (P0AGB3 whole entry partner): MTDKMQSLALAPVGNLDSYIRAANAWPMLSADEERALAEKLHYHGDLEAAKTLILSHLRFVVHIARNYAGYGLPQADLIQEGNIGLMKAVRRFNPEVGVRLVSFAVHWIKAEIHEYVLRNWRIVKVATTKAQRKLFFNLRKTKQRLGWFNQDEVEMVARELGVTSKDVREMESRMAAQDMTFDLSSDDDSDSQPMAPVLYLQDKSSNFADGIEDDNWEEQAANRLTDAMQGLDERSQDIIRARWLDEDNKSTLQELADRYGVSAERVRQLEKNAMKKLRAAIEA

`CO[C@H]1/C=C/O[C@@]2(C)Oc3c(C)c(O)c4c(O)c(c(/C=N/N5CCN(C)CC5)c(O)c4c3C2=O)NC(=O)/C(C)=C\C=C\[C@H](C)[C@H](O)[C@@H](C)[C@@H](O)[C@@H](C)[C@H](OC(C)=O)[C@@H]1C` [rifampicin] was tested, and the pIC50 was ~6.70.
